This note sets out measurements from patent publication US8288421B2, “Phenylaminopyridines” (Basilea Pharmaceutica AG, priority 2004, dated 2012).

The test system of data set [1] is HeLa. Kind of data set: Hoechst 33342 nuclear staining. It counts as cell-based, human. The conditions noted are these: 48 h read-out. Here is the method:
(§1) This assay is performed in 96 well tissue culture plates. Appropriate number of cells (adherent cells: 3-5*10^3, suspension cells: 8-10*10^3) are being seeded out in 80 μl complete medium. Adherent cells are incubated for 24 h for proper spreading out before addition of test compounds while suspension cells are immediately treated with test compounds after seeding out. The test compounds are added in 20 μl complete medium containing max 5% DMSO. The final compound concentrations in the assays are in the range of 0.001 μM-10 μM. […] The assay plates are then further incubated for 30 minutes and subsequently analyzed with a standard inverted fluorescence microscope.
(§2) The readout allows the determination of the fraction of apoptotic nuclei as well as other morphological criteria specific for apoptosis as a function of the treatment. The scores A, B, C and D are explained at the end of the Table.

Data set [2] relates to Jurkat. Nature of the data set: Hoechst 33342 nuclear staining. It counts as cell-based, human. The conditions noted are these: 48 h read-out. Here is the method: as §1, §2
In data set [3] the test system is PBL. Kind of data set: Hoechst 33342 nuclear staining. It counts as cell-based, human. The conditions noted are these: 48 h read-out. As to the method:
as §1, §2

In data set [4] the test system is Jily. Nature of the data set: Hoechst 33342 nuclear staining. It counts as cell-based. Conditions: 48 h read-out. Here is the method: as §1, §2
Data set [5] has as its system MRC5. Nature of the data set: Hoechst 33342 nuclear staining. The data set is classed as cell-based. The conditions noted are these: MRC5, 48 h read-out. Here is the method: as §1, §2
The test system of another data set is HT1080. Nature of the data set: MTS proliferation assay. It counts as cell-based, human. The conditions noted are these: HT1080, 72 h read-out. As to the method: (§3) The assay is performed in 96 well tissue culture plates. The cells (range: 1.5*10^3-10^4) are seeded out in 80 μl complete medium 24 h prior to compound treatment. The test compounds are added in 20 μl complete medium containing max 5% DMSO. The final compound concentrations in the assays are in the range of 0.001 μM-10 μM. The assay plates are incubated for 72 h at culture conditions. The MTS reagent is prepared according to the manufacturer's protocol (Promega G1111). 20 μl MTS reagent are added to each well, the assay plates are quickly spun and incubated for another 3 h at culture conditions. Subsequently, the plates are shortly shaked and absorption measured with a microplate-reader at 492 nm. The scores A, B, C and D are explained at the end of the Table.
In general terms: Formazan colour is commonly taken as a measure of viable cells.

The subject of data set [6] is HeLa. Nature of the data set: MTS proliferation assay. The data set is classed as cell-based, human. Conditions: 72 h read-out. Here is the method:
as §3

The subject of data set [7] is Jurkat. Kind of data set: MTS proliferation assay. The data set is classed as cell-based, human. Conditions: 72 h read-out. Here is the method:
as §3

Data set [8] has as its system Jily. Nature of the data set: MTS proliferation assay. It counts as cell-based. Conditions: 72 h read-out. As to the method: as §3
Data set [9] relates to MRC5. Nature of the data set: MTS proliferation assay. The data set is classed as cell-based. The conditions noted are these: MRC5, 72 h read-out. As to the method:
as §3

In data set [10] the test system is HeLa. Nature of the data set: PI staining for cell cycle distribution. The conditions noted are these: 24 h read-out, read-out: PI staining for cell cycle distribution EC50 (G2M arrest), HeLa. It counts as cell-based, human. Here is the method:
1-2*10^5 cells are seeded into 24 well tissue culture plates and incubated for 24 h prior to compound addition. Compounds are added for 24 h in a final concentration of 3 μM or 10 μM. Adherent cells are harvested by trypsinization. The cell suspensions are fixed by adding 2 parts ice cold ethanol 100% while vortexing. Then the samples are stored for >2 h at −20° C. Subsequently the cells are washed with PBS once and resuspended in 250 μl PBS containing 50 μg/ml PI (Calbiochem #537059), then the samples are incubated at 37° C. for 30 minutes and subsequently analyzed on a FACSCalibur™ monitoring linear PI fluorescence activity on FL2. The readout allows the detection of a possible direct or indirect influence of the tested compounds on the cell cycle. All active test compounds induce an arrest of the cell population in the G2M phase. This effect has been quantified by running the test at different concentrations. In Table 4 EC50 values are tabulated.

Data set [11] concerns HeLa. Nature of the data set: Mitochondrial membrane potential (JC-1). The conditions noted are these: 48 h read-out. It counts as cell-based, human. Here is the method: as §1, with “20 μal” for “20 μl”, “DMSO.” for “DMSO. The final compound concentrations in the assays are in the range of 0.001 μM-10 μM.”, “fluorescence microscope by using the FITC and TRITC filters.” for “fluorescence microscope.”
(§4) The scores A, B, C and D are explained at the end of the Table.

Data set [12] has as its system Jurkat. Nature of the data set: Mitochondrial membrane potential (JC-1). It counts as cell-based, human. The conditions noted are these: 48 h read-out. Here is the method:
as §1, with “20 μal” for “20 μl”, “DMSO.” for “DMSO. The final compound concentrations in the assays are in the range of 0.001 μM-10 μM.”, “fluorescence microscope by using the FITC and TRITC filters.” for “fluorescence microscope.”
as §4

In another data set the test system is MCF7. Nature of the data set: Mitochondrial membrane potential (JC-1). The data set is classed as cell-based, human. The conditions noted are these: MCF7, 48 h read-out. As to the method: as §1, with “20 μal” for “20 μl”, “DMSO.” for “DMSO. The final compound concentrations in the assays are in the range of 0.001 μM-10 μM.”, “fluorescence microscope by using the FITC and TRITC filters.” for “fluorescence microscope.”
as §4

Data set [13] has as its system PBL. Nature of the data set: Mitochondrial membrane potential (JC-1). The data set is classed as cell-based, human. Conditions: 48 h read-out. As to the method: as §1, with “20 μal” for “20 μl”, “DMSO.” for “DMSO. The final compound concentrations in the assays are in the range of 0.001 μM-10 μM.”, “fluorescence microscope by using the FITC and TRITC filters.” for “fluorescence microscope.”
as §4

The next data set has as its system DOHH2. Nature of the data set: Mitochondrial membrane potential (JC-1). The data set is classed as cell-based. Conditions: DOHH2, 48 h read-out. Here is the method:
as §1, with “20 μal” for “20 μl”, “DMSO.” for “DMSO. The final compound concentrations in the assays are in the range of 0.001 μM-10 μM.”, “fluorescence microscope by using the FITC and TRITC filters.” for “fluorescence microscope.”
as §4

The next data set deals with H460. Nature of the data set: Colony Forming Units. The data set is classed as cell-based, human. Conditions: H460, read-out after 6 days. As to the method: (§5) Appropriate numbers of cells (100-150 cells, dependent on the cell type) are being seeded out in 1 ml complete medium into 6-well plates and allowed to attach for 48 h. The compounds are added after 48 h in 500 μl solution. The concentrations are in the range of 0.001 μM-3 μM. Control plates receive the same volume of medium containing the appropriate amount of DMSO. The plates are incubated for 6 days at cell culture conditions and subsequently scored for growth of colonies (containing more than 30 cells) by using a microscope.

The test system of data set [14] is HeLa. Nature of the data set: Colony Forming Units. It counts as cell-based, human. The conditions noted are these: read-out after 6 days. Here is the method: as §5

For the compound `COc1ccc(Nc2cncc(-c3cccc(NS(C)(=O)=O)c3)c2)cc1` [Example 1, 3-(m-Mesylaminophenyl)-5-(p-methoxyphenylamino)pyridine], the melting point was determined as 240 °C. Also, in the data set on HeLa [1] (Homo sapiens), the EC50 was in the range of 100 to 1000 nM. Besides, the EC50 with Jurkat [2] (Homo sapiens) fell in the range of 100 to 1000 nM. Further, the 50% effective concentration (EC50) with PBL [3] (Homo sapiens) is over 1000 nM. Besides, the EC50 in the data set on Jily [4] was 100 to 1000 nM. Besides, in the data set on MRC5 [5] (Homo sapiens), the EC50 fell in the range of 100 to 1000 nM. Besides, in the data set with HT1080 (Homo sapiens, HT-1080), the half-inhibitory concentration (IC50) lay within 100 to 1000 nM. Also, in the data set on HeLa [6] (Homo sapiens), the IC50 lay within 100 to 1000 nM. Further, the IC50 with Jurkat [7] (Homo sapiens) was in the range of 10 to 100 nM. Moreover, in the data set on Jily [8], the IC50 lay in the range of 10 to 100 nM. The IC50 in the data set on MRC5 [9] (Homo sapiens) fell in the range of 100 to 1000 nM. Further, the half-maximal effective concentration (EC50) in the data set with HeLa [10] (Homo sapiens) was 100 to 1000 nM. For the same compound, the EC50 in the data set on HeLa [11] (Homo sapiens) fell in the range of 100 to 1000 nM. The EC50 in the data set on Jurkat [12] (Homo sapiens) fell in the range of 100 to 1000 nM. Moreover, the concentration giving a half-maximal response (EC50) in the data set on MCF7 (Homo sapiens) is over 1000 nM. The half-maximal effective concentration (EC50) with PBL [13] (Homo sapiens) was over 1000 nM. Moreover, the EC50 in the data set on DOHH2 (Homo sapiens, DOHH-2) fell in the range of 100 to 1000 nM.

On to `COc1ccc(Nc2cncc(-c3cccc(NC(=O)c4ccccc4)c3)c2)cc1` [Example 2, 3-(m-Benzoylaminophenyl)-5-(p-methoxyphenylamino)pyridine], for which the melting point was 135 to 140 °C. The EC50 in the data set on HeLa [1] (Homo sapiens) is 10 to 100 nM. For the same compound, the EC50 in the data set on Jurkat [2] (Homo sapiens) lay in the range of 10 to 100 nM. In addition, the 50% effective concentration (EC50) in the data set on PBL [3] (Homo sapiens) is over 1000 nM. Also, the EC50 in the data set on Jily [4] was in the range of 10 to 100 nM. For the same compound, in the data set on MRC5 [5] (Homo sapiens), the EC50 was over 1000 nM. The half-maximal inhibitory concentration (IC50) with HT1080 (Homo sapiens, HT-1080) was 10 to 100 nM. Further, the IC50 in the data set with HeLa [6] (Homo sapiens) fell in the range of 10 to 100 nM. Further, in the data set with Jurkat [7] (Homo sapiens), the IC50 was under 10 nM. The 50% inhibitory concentration (IC50) in the data set with Jily [8] was under 10 nM. Also, the 50% inhibitory concentration (IC50) in the data set on MRC5 [9] (Homo sapiens) lay within 10 to 100 nM. For the same compound, in the data set on HeLa [10] (Homo sapiens), the EC50 lay in the range of 100 to 1000 nM. Moreover, the EC50 in the data set on HeLa [11] (Homo sapiens) is 10 to 100 nM. In addition, the EC50 with Jurkat [12] (Homo sapiens) was in the range of 10 to 100 nM. Further, in the data set with MCF7 (Homo sapiens), the concentration for a half-maximal effect (EC50) is over 1000 nM. The 50% effective concentration (EC50) in the data set with PBL [13] (Homo sapiens) is over 1000 nM. Further, the EC50 with DOHH2 (Homo sapiens, DOHH-2) was in the range of 10 to 100 nM. Also, in the data set with H460 (Homo sapiens, NCI-H460, 144 h), the IC50 lay in the range of 100 to 1000 nM. Besides, the IC50 in the data set with HeLa [14] (Homo sapiens, 144 h) was in the range of 100 to 1000 nM.

Consider `CCS(=O)(=O)Nc1cccc(-c2cncc(Nc3ccc(OC)cc3)c2)c1` [Example 4], for which the EC50 with HeLa [1] is 100 to 1000 nM; with Jurkat [2], 10 to 100 nM; in the data set on PBL [3], over 1000 nM; with Jily [4], 10 to 100 nM; in the data set on MRC5 [5] it was 10 to 100 nM; in the data set with HeLa [10], 100 to 1000 nM. In addition, the EC50 with HeLa [11] was 100 to 1000 nM; in the data set with Jurkat [12] it was under 10 nM; with MCF7 it was over 1000 nM; with PBL [13] it was over 1000 nM; in the data set on DOHH2, under 10 nM. For the same compound, the half-inhibitory concentration (IC50) with HT1080 was in the range of 10 to 100 nM; in the data set with HeLa [6] it was 100 to 1000 nM; in the data set with Jurkat [7] it was 10 to 100 nM; in the data set with Jily [8] it was 10 to 100 nM; in the data set on MRC5 [9], 100 to 1000 nM; with H460, 10 to 100 nM. Also, in the data set on HeLa [14], the 50% inhibitory concentration (IC50) was 10 to 100 nM.

What is called EC50 is the concentration that produces a half-maximal response. As usually defined, the IC50 is the midpoint of a concentration-inhibition curve. By melting point is commonly meant the temperature, or range, at which the solid turns liquid.
